From patent publication US6987093B2 (priority 2001, dated 2006)
Values after ≈ are worked out from the molar mass of the structure shown. Values joined by “and” are separate entries in the source; they are usually repeats but may differ in a detail not shown here. Equal values may be shown once. Read-outs that look alike come from different tables or passages of the source.

Assays:
H. influenzae = test: Study 95-001 Kirby-Bauer disk diffusion susceptibility, H. influenzae; format: cell-based, Haemophilus influenzae; conditions: all H. influenzae organisms isolated
Protocol: (§1) Specimens for culture and susceptibility testing were obtained from the infected ear by tympanocentesis within 24 h of start of therapy. […] However, the study was evaluated using the breakpoints in the most recent set of guidelines.

H. influenzae 54A1100 = test: MIC determination, H. influenzae 54A1100; format: cell-based, Haemophilus influenzae; conditions: Haemophilus influenzae
Protocol: MIC Determinations. Streptococcus pneumoniae, S. pyogenes, E. faecalis, and H. influenzae MICs were determined using the broth microdilution procedure recommended by the NCCLS. Test trays were incubated at 35C without carbon dioxide. For testing of streptococci, the cation-adjusted Mueller-Hinton broth was supplemented with 2–3% lysed horse blood. For testing H. influenzae, freshly prepared Haemophilus Test Medium broth was used.
Bacterial Strains. • S. pneumoniae 02J1016, serotype 3, originally isolated from blood culture (strain P 4241) (MLS- and penicillin-susceptible). • S. pyogenes 02C0203, ATCC 12384, group A, type 3 (MLS-susceptible). • E. faecalis 03A1085, vancomycin susceptible clinically derived strain. • H. influenzae 54A1100, (43095 ATCC Fulghum strain) non-serotype B strain originally isolated from otitis media (macrolide and penicillin susceptible). • H. influenzae 54A1218, clinically derived non-serotype B strain (macrolide-susceptible, penicillin-resistant, TEM-1 beta-lactamase).

[1] = test system: Haemophilus influenzae 54A1218; test: Gerbil middle ear (otitis media) infection model, ED50, H. influenzae 54A1218; format: in vivo; conditions: for ED50: past studies
[2] = Azithromycin pulmonary tissue pharmacokinetics in mice; format: in vivo; conditions: female, CF-1, mouse, lung (pulmonary tissue), Pulmonary PK, total dose 100 mg/kg oral; for AUC(0-t): read-out: AUC(0-tlast)
Protocol: Blood and pulmonary tissue samples were taken starting at 0.5 h post-dose and at predetermined intervals over a 96 h period. Plasma and lung samples were prepared and maintained at −70 C. […] The lower limit of quantification (LLOQ) was 50 ng/ml. […] Interassay variability was <7%. Pharmacokinetic parameters were calculated using the non-compartmental method by WinNonlin 2.1 (Scientific Consulting, Inc.).

M. catarrhalis = test: Susceptibility testing of trial M. catarrhalis isolates; format: cell-based, Moraxella catarrhalis; conditions: NCCLS criteria
Text: (§2) Samples of middle ear fluid were split for storage at a central laboratory and cultured locally. All pathogens isolated locally were subcultured and sent to a central laboratory for confirmation and susceptibility testing, performed by Kirby-Bauer disk-diffusion or MIC testing according to NCCLS standards.
(§3) Cultures were taken for antimicrobial susceptibility testing and bacterial species were identified. Current NCCLS approved breakpoints for MICs and zone sizes were applied to all data irrespective of the breakpoint in use at the time of the study. The isolates from the clinical studies were sent to central laboratories for identification and susceptibility determination. The methods for agar diffusion disk tests are those recommended by NCCLS.
(§4) The susceptibility breakpoints for azithromycin were defined as follows: […]

S. pneumoniae isolates = test: Susceptibility (MIC) testing of trial S. pneumoniae isolates with PCR of resistance mechanism; format: cell-based, Streptococcus pneumoniae; conditions: Streptococcus pneumoniae
Text: as §2
Polymerase chain reaction (PCR) determination of resistance mechanisms in all the azithromycin-resistant pneumococci was done.
as §3, §4

M catarrhalis = test: Study 95-001 otitis media, M. catarrhalis; format: in vivo, human; conditions: 3-day dosing regimen
Protocol: as §1
(§5) To be a bacteriological cure, the MITT subject had to have a positive culture from the middle ear for S. pneumoniae, H influenzae, or M. catarrhalis. Eradication was defined as presumed eradication of pretreatment pathogen(s) based on signs/symptoms or unavailability of culturable material. All evaluable patients had only one of the bacterial species present at baseline. There was no bacteriological response data collected for 95–001. However, the clinical outcome by bacterial pathogen at follow-up (approximately 28 days after first visit) was collected. For patients with S. pneumoniae as the baseline pathogen, all treatment arms yielded 100% clinical cure when the investigators' evaluations that were missing are not included in the analysis. […] The comparator drug, ceftriaxone, had no failures out of 9 patients.

[3] = test system: Haemophilus influenzae 54A1100; test: Gerbil middle ear infection in vivo time kill, H. influenzae 54A1100
[4] = test system: Streptococcus pneumoniae 02J1016; test: Murine lung (pulmonary/pneumonia) infection model challenged with Streptococcus pneumoniae; format: in vivo, mouse
pneumococcal challenge = conditions: single dose compared with all the other dose regimens; cited from earlier work
S. pneumoniae = test: Study 95-001 otitis media, S. pneumoniae as baseline pathogen; format: in vivo, human; conditions: five patients in azithromycin regimens with S. pneumoniae isolates with intermediate resistance
Protocol: as §1, §5

[5] = test system: Haemophilus influenzae 54A1100; test: Murine acute infection (peritonitis) model challenged with Haemophilus influenzae; format: in vivo, mouse; conditions: for PD50: s.c.
[6] = test system: Haemophilus influenzae 54A1100; test: Gerbil middle ear (otitis media) infection model, ED50, H. influenzae 54A1100; format: in vivo
[7] = test system: Streptococcus pneumoniae 02J1016; test: Murine peritonitis model, Streptococcus pneumoniae; format: in vivo, mouse; conditions: oral QD
[8] = oral QD, gerbil otitis media model
[9] = 33 mg/kg, 3 days of dosing, 33.3 mg/kg/dose
[10] = 1 day of dosing, 100 mg/kg/dose
[11] = 2 days of dosing, 50 mg/kg/dose
[12] = oral QD, murine pneumonia model
[13] = oral QD, murine peritonitis model

CC[C@H]1OC(=O)[C@H](C)[C@@H](O[C@H]2C[C@@](C)(OC)[C@@H](O)[C@H](C)O2)[C@H](C)[C@@H](O[C@@H]2O[C@H](C)C[C@H](N(C)C)[C@H]2O)[C@](C)(O)C[C@@H](C)CN(C)[C@H](C)[C@@H](O)[C@]1(C)O [Azithromycin, 9a-aza-9a-methyl-9-deoxo-9a-homoerythromycin A]
zone sizes (agar diffusion) (H. influenzae): ≥ 19 mm | susceptibility by agar diffusion (zone size) (H. influenzae; NCCLS breakpoint of ≧12 mm): susceptible | MIC (H. influenzae 54A1100; 54A1100, H. influenzae 54A1100): 1.56 µg/mL (≈ 2.08 µM) | MIC (H. influenzae 54A1100; H. influenzae 54A1100, read-out: MIC): 0.5 to 1 µg/mL (≈ 0.668 to 1.34 µM) | ED50 One-Day Therapy [1, 8]: 84 mg/kg/therapy | ED50 Three-Day Therapy [1, 8]: 65 mg/kg/therapy | ED50 Two-Day Therapy [1, 8]: 53 mg/kg/therapy | ED50 ([1]; Q.D. 1): 83.8 (53.6–114.1) mg/kg/total regimen | ED50 ([1]; Q.D. 2): 53.4 (21.2–85.5) mg/kg/total regimen | ED50 ([1]; Q.D. 3): 65.2 (51–79.4) mg/kg/total regimen | Cmax [2, 9]: 28000 ng/mL | Tmax [2, 9]: 12 h | AUC(0-t) [2, 9]: 1050 µg·h/mL | Cmax [2, 10]: 40000 ng/mL | Tmax [2, 10]: 4 h | AUC(0-t) [2, 10]: 970 µg·h/mL | Cmax [2, 11]: 31000 ng/mL | Tmax [2, 11]: 28 h | AUC(0-t) [2, 11]: 870 µg·h/mL | susceptibility of isolated M. catarrhalis to azithromycin (M. catarrhalis): susceptible | MIC (S. pneumoniae isolates; macrolide-resistant S. pneumoniae isolates containing the erm B gene): > 256 µg/mL | MIC (S. pneumoniae isolates; macrolide-resistant S. pneumoniae isolates containing the mef A gene): 8 µg/mL (≈ 10.7 µM) | outcome at follow-up of the two M catarrhalis isolates (M catarrhalis): presumed bacteriological cures | Recoverable CFU (Bulla) [Log10.Geo.Mean] (SEM) ([3]; 66.6 mg/kg/day oral Q.D. [3 days], 48 hours post-infection): 5.8817 (0.44) log of cfu-bulla wash/ml and 5.8817 log of cfu-bulla wash/ml | Recoverable CFU (Bulla) [Log10.Geo.Mean] (SEM) ([3]; 66.6 mg/kg/day oral Q.D. [3 days], 72 hours post-infection): 4.5981 (0.14) log of cfu-bulla wash/ml and 4.5981 log of cfu-bulla wash/ml | Recoverable CFU (Bulla) [Log10.Geo.Mean] (SEM) ([3]; 66.6 mg/kg/day oral Q.D. [3 days], 96 hours post-infection): 6.1520 (0.75) log of cfu-bulla wash/ml and 6.1520 log of cfu-bulla wash/ml | Recoverable CFU (Bulla) [Log10.Geo.Mean] (SEM) ([3]; 100 mg/kg/day oral Q.D. [2 days], 48 hours post-infection): 5.7572 (0.54) log of cfu-bulla wash/ml and 5.7572 log of cfu-bulla wash/ml | Recoverable CFU (Bulla) [Log10.Geo.Mean] (SEM) ([3]; 100 mg/kg/day oral Q.D. [2 days], 72 hours post-infection): <2.4580 (0.46) log of cfu-bulla wash/ml and <2.4580 log of cfu-bulla wash/ml | Recoverable CFU (Bulla) [Log10.Geo.Mean] (SEM) ([3]; 100 mg/kg/day oral Q.D. [2 days], 96 hours post-infection): <3.1112 (1.11) log of cfu-bulla wash/ml and <3.1112 log of cfu-bulla wash/ml | Recoverable CFU (Bulla) [Log10.Geo.Mean] (SEM) ([3]; 200 mg/kg/day oral Q.D. [1 day], 48 hours post-infection): <2.0000 log of cfu-bulla wash/ml | Recoverable CFU (Bulla) [Log10.Geo.Mean] (SEM) ([3]; 200 mg/kg/day oral Q.D. [1 day], 72 hours post-infection): <2.0000 log of cfu-bulla wash/ml | Recoverable CFU (Bulla) [Log10.Geo.Mean] (SEM) ([3]; 200 mg/kg/day oral Q.D. [1 day], 96 hours post-infection): <2.0000 log of cfu-bulla wash/ml | eradication, test subjects ([3]; Q.D. 2 (100 mg/kg on day 1 and 2), at 72 and at 96 hours post-infection): 4/5 | eradication in any test subject ([3]; Q.D. 3 (66.6 mg/kg on day 1, 2 and 3), 72 and 96 hours post-infection): not observed | Oral PD50 ([4]; Dosing Regimen 1 day): 20.4 (16.4–24.3) mg/kg/day | Oral PD50 ([4]; Dosing Regimen 2 days): 27.6 (22.8–32.4) mg/kg/day | Oral PD50 ([4]; Dosing Regimen 3 days): 49.4 (28.1–70.8) mg/kg/day | Mice Surviving/Total ([4]; mouse, in vivo): 0/10 and 10/10 and 7/10 and 1/10 and 9/10 and 4/10 | ED50 One-Day Therapy [4, 12]: 20^1 mg/kg/therapy | ED50 Three-Day Therapy [4, 12]: 49 mg/kg/therapy | ED50 Two-Day Therapy [4, 12]: 27 mg/kg/therapy | survival versus a pneumococcal challenge (pneumococcal challenge): significantly increased survival | clinical outcomes at EOT or follow-up (S. pneumoniae): either “cure” or “improvement” | Oral PD50 ([5]; Dosing Regimen 1 day): 25.3 (14.3–36.2) mg/kg/day | Oral PD50 ([5]; Dosing Regimen 2 days): 49.9 (41.5–58.5) mg/kg/day | Oral PD50 ([5]; Dosing Regimen 3 days): 181.6 (180.1–183.1) mg/kg/day | Mice Surviving/Total ([5]; mouse, in vivo): 0/10 and 6/10 and 10/10 and 9/10 and 1/10 and 5/10 | PD50 ([5]; one therapeutic dose (one day regimen)): 25.3 mg/kg | ED50 One-Day Therapy [5, 13]: 30.3^1 mg/kg/therapy | ED50 Three-Day Therapy [5, 13]: 147 mg/kg/therapy | ED50 Two-Day Therapy [5, 13]: 48 mg/kg/therapy | PD50 ([5]; previously tested, standard dosing paradigm (b.i.d. on day 1)): 27 mg/kg | ED50 ([6]; Dosing Regimen 1 day): 138.1 (118.7–157.6) mg/kg/total | ED50 ([6]; Dosing Regimen 2 days): 138.1 (118.7–157.6) mg/kg/total | ED50 ([6]; Dosing Regimen 3 days): 162.9 (140–185.9) mg/kg/total | ED50 One-Day Therapy [6, 8]: 138 mg/kg/therapy | ED50 Three-Day Therapy [6, 8]: 163 mg/kg/therapy | ED50 Two-Day Therapy [6, 8]: 138 mg/kg/therapy | ED50 ([6]; past studies, Q.D. 3): 162.7 mg/kg/total regimen | ED50 One-Day Therapy [7]: 8.7^1 mg/kg/therapy | ED50 Three-Day Therapy [7]: 15.1 mg/kg/therapy | ED50 Two-Day Therapy [7]: 7.6 mg/kg/therapy
